From patent publication US20190125735A1, “INHIBITION OF P38 MAPK FOR THE TREATMENT OF CANCER” (Board of Regents, The University of Texas System, priority 2015, published 2019)

Legend:
DU145 cells [1] = assay: FACS CD44/CD24 in DU145 cells; assay type: cell-based, human; details: DU145, 5 μM, 7 days
Method: Fluorescence-activated cell sorting (FACS) for PSAHi & PSA−/lo cells and CD44Hi & CD24Lo cells was performed as described previously (Hollier et al., 2013) using BD Influx sorter.

[2] = test system: BCR-ABL+ mouse ALL cells seeded on MSCs; assay: Post-screening leukemic cell cluster formation underneath pretreated MSCs; assay type: cell-based; details: imatinib 5 μM with SB203580 20 μM or dexamethasone 50 nM, 4 days + 24 hours
Description: Phase-contrast images of co-cultured MSCs and ALL cells were obtained using an Axio Observer.Z1 microscope, an AxioCam MR camera, and AxioVision software (Zeiss, Oberkochen, Germany). For screening, a cluster was defined as a group of more than five leukemic cells under the MSCs. The total number of leukemic cell clusters was the average number of clusters from three different fields (10× objective). For post-screening experiments, a cluster was defined as a group of more than 10 leukemic cells under the MSCs. The total number of leukemic cell clusters was the average number of clusters from 10 different fields (10× objective).

MDA-MB-231 cells = assay: Experimental metastasis model, MDA-MB-231 cells via tail vein of NOD/SCID mice; assay type: in vivo, mouse; details: daily injection beginning 48 h post-implantation
Description: Since many breast cancer patients harbor occult micrometastases, at the time of diagnosis, and metastasis is often attributed to the systemic dissemination of tumor cells before or during surgical resection of the primary tumor (Pantel et al., 1999; Fehm et al., 2008), it was examined whether p38 inhibition could also prevent colonization and progression to macrometastasis. For this, an experimental metastasis model was employed, which circumvents the early steps of the metastatic cascade. Luciferase-labeled MDA-MB-231 cells were injected via the tail vein of NOD/SCID mice, and the emergence of lung metastases were monitored using bioluminescence. […] To eliminate the possibility of “off-target” effects, mice were intravenously injected with MDA-MB-231 cells expressing either control shRNA or p38 shRNA.
NOD/SCID and BALB/c mice were purchased from the Jackson Laboratory (Bar Harbor, Me., USA). […] Mice were assessed weekly for tumor growth and metastasis via subcutaneous injection of D-Luciferin (150 mg/kg; Caliper LifeSciences, Hopkinton, Mass., USA) and bioluminescent imaging (IVIS imaging system 200 series; Xenogen Corporation, PerkinElmer, Waltham, Mass., USA). Primary tumor size was measured with a caliper as the product of two perpendicular diameters (mm^2). […]

ZEB1 = ZEB1 mRNA and protein levels (qRT-PCR, immunoblotting); assay type: cell-based, human
Description: First, the elevated levels of FOXC2 and ZEB1 transcripts were confirmed in HMLER-FOXC2 cells versus HMLER-vector cells by qRT-PCR (FIG. 19A). […] Accordingly, shRNA-mediated suppression of FOXC2 in a panel of cell lines yielded a >50-fold decrease in ZEB1 mRNA (FIG. 19E) and a >80% reduction in ZEB1 protein levels (FIG. 19F). […] Conversely, a >50-fold increase as found in miR-200b, and a >1000-fold increase in miR-200c, following FOXC2 knockdown compared to control shRNA-transduced counterparts (FIG. 19H). To ascertain whether FOXC2 directly regulates miR-200 or ZEB1 expression, the promoter regions of both miR-200 clusters on chromosomes 1 and 12 as well as the ZEB1 promoter were analyzed, and a conserved FOXC2-binding element within the ZEB1 promoter was identified. […] Furthermore, in support of the notion that p38-mediated phosphorylation of FOXC2 regulates ZEB1 expression, elevated ZEB1 protein levels were only detected in HMLER-FOXC2 and HMLER-FOXC2(S367E) cells (FIG. 19L, lanes 2 and 3), but not in HMLER-FOXC2(S367A) cells (FIG. 19L, lane 4).
Immunoblotting and immunofluorescence (Mani et al., 2008) were performed as previously described. Primary antibodies were as follows: β-actin (Sigma, St Louis, Mo., USA; A3853), mouse anti-human FOXC2 (Dr. Naoyuki Miura, Hamamatsu University School of Medicine, Japan), goat polyclonal anti-FOXC2 (Santa Cruz Biotechnology, Dallas, Tex., USA; sc-21397), p-p38 (Cell Signaling, Danvers, Mass., USA; 4511), p38 (Cell Signaling; 9211), E-cadherin (BD Biosciences, San Jose, Calif., USA; 61081), fibronectin (BD Biosciences; 610077), vimentin (Novus Biologicals, Littleton, Colo., USA; NB200-623), ZEB1 (Novus Biologicals; NBP1-05987), and HA (Covance, Princeton, N.J., USA; MMS-101P).
(§1) qRT-PCR was performed using SYBR Green (Applied Biosystems, Waltham, Mass., USA) for mRNAs and Taqman (Applied Biosystems) for microRNAs as described previously (Hollier et al., 2013).

[3] = test system: HMLE-Snail, HMLE-Twist, MDA-MB-231 and SUM159 cells; assay: Sphere formation of mesenchymal mammary cells; assay type: cell-based, human; details: relative to vehicle-treated cells
Method: It was next ascertained whether p38 inhibition compromises the maintenance of the established EMT phenotype.
Quantification of invadopodia (Eckert et al., 2011), scratch/wound-healing assays (Sarkar et al., 2015) fluorescence-activated cell sorting (FACS), and sphere-formation assays (Mani et al., 2008) were conducted as described previously.

FOXC2 = FOXC2 transcript levels by qRT-PCR; assay type: cell-based, human; details: treated vs vehicle
Method: as §1

DU145 cells [4] = assay: Wound healing assay, DU145 cells; assay type: cell-based, human; details: DU145, 5 μM, 7 days
Method: Immunoblotting, Immunofluorescence, RTPCR, wound healing- and tumorsphere assays were performed as previously described (Sarkar et al., 2015). Cell viability (MTS) was assessed using the CellTiter96 Aqueous One-Solution Cell Proliferation Assay kit (Promega).

**Q.** With `C[S+]([O-])c1ccc(-c2nc(-c3ccc(F)cc3)c(-c3ccncc3)[nH]2)cc1` (stereo not shown) [SB203580, 4-(4-Fluorophenyl)-2-(4-methylsulfinylphenyl)-5-(4-pyridyl) 1H-imidazole] as the compound, how does the “CD44^hi/CD24^lo fraction” value (DU145 cells [1]) read?
**A.** significant reduction

**Q.** And the “Leukemic cell clusters underneath imatinib-pretreated MSCs” value [2]?
**A.** completely prevented leukemic cell cluster formation

**Q.** And the Event-free survival (MDA-MB-231 cells)?
**A.** extended event-free survival

**Q.** What about the “Metastatic burden (lung)” value (MDA-MB-231 cells) of the same compound?
**A.** significantly reduced the metastatic burden

**Q.** And the ZEB1 protein levels (ZEB1; HMLER-FOXC2(S367E) cells)?
**A.** remained relatively high

**Q.** And the ZEB1 protein levels (ZEB1; HMLER-FOXC2 cells)?
**A.** decreased

**Q.** What about the “Reduction of ZEB1 mRNA and protein levels compared to vehicle” value (ZEB1; SB203580 treatment) of the same compound?
**A.** > 60 fold

**Q.** What about the Sphere-formation [3] of the same compound?
**A.** substantially reduced sphere-formation

**Q.** What about the FOXC2 transcript levels (FOXC2) of the same compound?
**A.** neither SB203580 nor p38 shRNA had a discernible effect on FOXC2 transcript levels

**Q.** And the Migratory potential (DU145 cells [4])?
**A.** significant reduction in migratory potential
